Source: patent publication US10285982B2, “3-(1H-pyrrolo[2,3-B]pyridin-2-yl)-1H-pyrazolo[3,4-C]pyridines and therapeutic uses thereof” (Samumed, LLC, priority 2015, dated 2019)

Experiments:
Format in all cases: cell-based
[1] = system: Wnt activity (Sp5-Luc reporter, SW480 colon carcinoma cells); experiment: Wnt activity screening assay, Sp5-Luc reporter gene in SW480 cells; conditions: Homo sapiens; for inhibition at 10 µM: given where EC50 >10 μM, read-out: percent inhibition at 10 μM; for EC50: overnight incubation
Procedure, shortened: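 First, hygromycin-selected SW480 Sp5-Luc reporter cells are seeded in medium with 1% fetal bovine serum and exposed overnight to compound (up to 10 μM, 0.1% DMSO). Next, luciferase signal is read by luminescence. Finally, EC50 is fitted, or percent inhibition at 10 μM is reported above 10 μM.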

SW480 colon cancer cells = experiment: Cell viability assay (CellTiter-Blue); conditions: Homo sapiens, 96 h, four days; for inhibition at 10 µM: given where EC50 >10 μM, read-out: percent inhibition at 10 μM
Procedure, shortened: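 4-day exposure, 37 °C/5% CO2; ~2×10^3 SW480 cells/well; 8-pt 1:3 curve, 10–0.0045 μM, duplicates vs DMSO controls. Resazurin→resorufin fluorescence readout, ~3 h. EC50 by nonlinear fit; if >10 μM, % inhibition at 10 μM reported.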

IL-6 (THP-1 cells) = experiment: IL-6 inhibition in LPS-stimulated THP-1 cells (HTRF); conditions: Homo sapiens; for EC50: IL-6 in THP-1 cells, LPS 500 ng/mL, 22 hours; for inhibition at 10 µM: given where EC50 >10 μM, IL-6, THP-1 cells, LPS, read-out: percent inhibition at 10 μM
Procedure, shortened: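 Readout is the 665/620 nm HTRF ratio for secreted IL-6, normalized to DMSO wells, with EC50 from a variable-slope four-parameter fit, or % inhibition at 10 μM when above 10 μM. Cells (1% FBS, 24 h beforehand) got compound for 2 h, then LPS 500 ng/mL for 22 h at 37° C; top dose 10 μM, 0.1% DMSO.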

Row | Compound | inhibition at 10 µM [1] | EC50 [1] | inhibition at 10 µM (SW480 colon cancer cells) | EC50 (SW480 colon cancer cells) | EC50 (IL-6 (THP-1 cells)) | inhibition at 10 µM (IL-6 (THP-1 cells))
1 | CN(C)CCNc1cc(F)cc(-c2ccnc3[nH]c(-c4n[nH]c5cnc(-c6ccncc6)cc45)cc23)c1 [Compound 466, N^1-(3-Fluoro-5-(2-(5-(pyridin-4-yl)-1H-pyrazolo[3,4-c]pyridin-3-yl)-1H-pyrrolo[2,3-b]pyridin-4-yl)phenyl)-N^2,N^2-dimethylethane-1,2-diamine] | 16.5% | > 10 µM | 16.8% | > 10 µM | > 10 µM | 5.9%
2 | CN(C)CCNc1cc(F)cc(-c2ccnc3[nH]c(-c4n[nH]c5cnc(-c6cncnc6)cc45)cc23)c1 [Compound 475, N^1-(3-Fluoro-5-(2-(5-(pyrimidin-5-yl)-1H-pyrazolo[3,4-c]pyridin-3-yl)-1H-pyrrolo[2,3-b]pyridin-4-yl)phenyl)-N^2,N^2-dimethylethane-1,2-diamine] | 10.9% | > 10 µM | 17% | > 10 µM | > 10 µM | 6.3%
3 | Fc1cccc(-c2ccnc3[nH]c(-c4n[nH]c5cnc(-c6cncc(OCc7ccccc7)c6)cc45)cc23)c1 [Compound 518, 5-(5-(Benzyloxy)pyridin-3-yl)-3-(4-(3-fluorophenyl)-1H-pyrrolo[2,3-b]pyridin-2-yl)-1H-pyrazolo[3,4-c]pyridine] | 3.3% | > 10 µM | 41.5% | > 10 µM | > 10 µM | 0%
4 | Oc1cncc(-c2cc3c(-c4cc5c(-c6ccc(F)cc6)ccnc5[nH]4)n[nH]c3cn2)c1 [Compound 533, 5-(3-(4-(4-Fluorophenyl)-1H-pyrrolo[2,3-b]pyridin-2-yl)-1H-pyrazolo[3,4-c]pyridin-5-yl)pyridin-3-ol] | – | 0.456 µM | – | 0.483 µM | > 10 µM | 7.2%
5 | CN(C)CCOc1cncc(-c2cc3c(-c4cc5c(-c6cccnc6)ccnc5[nH]4)n[nH]c3cn2)c1 [Compound 563, N,N-Dimethyl-2-((5-(3-(4-(pyridin-3-yl)-1H-pyrrolo[2,3-b]pyridin-2-yl)-1H-pyrazolo[3,4-c]pyridin-5-yl)pyridin-3-yl)oxy)ethan-1-amine] | 28.8% | > 10 µM | 0% | > 10 µM | > 10 µM | 15%
6 | c1cc(N2CCCCC2)c2cc(-c3n[nH]c4cnc(C5CCNCC5)cc34)[nH]c2n1 [Compound 601, 3-(4-(Piperidin-1-yl)-1H-pyrrolo[2,3-b]pyridin-2-yl)-5-(piperidin-4-yl)-1H-pyrazolo[3,4-c]pyridine] | 0% | > 10 µM | 12% | > 10 µM | > 10 µM | 3%
7 | CN1CCN(c2ccnc3[nH]c(-c4n[nH]c5cnc(-c6cn[nH]c6)cc45)cc23)CC1 [Compound 635, 3-(4-(4-Methylpiperazin-1-yl)-1H-pyrrolo[2,3-b]pyridin-2-yl)-5-(1H-pyrazol-4-yl)-1H-pyrazolo[3,4-c]pyridine] | 25.4% | > 10 µM | 10.7% | > 10 µM | > 10 µM | 10.9%
8 | CN1CCN(c2ccnc3[nH]c(-c4n[nH]c5cnc(-c6cncc(NC(=O)CC7CCNCC7)c6)cc45)cc23)CC1 [Compound 641, N-(5-(3-(4-(4-Methylpiperazin-1-yl)-1H-pyrrolo[2,3-b]pyridin-2-yl)-1H-pyrazolo[3,4-c]pyridin-5-yl)pyridin-3-yl)-2-(piperidin-4-yl)acetamide] | 8% | > 10 µM | 13.1% | > 10 µM | > 10 µM | 29.6%
9 | Cn1cc(-c2cc3c(-c4cc5cccnc5[nH]4)n[nH]c3cn2)cn1 [Compound 652, 5-(1-Methyl-1H-pyrazol-4-yl)-3-(1H-pyrrolo[2,3-b]pyridin-2-yl)-1H-pyrazolo[3,4-c]pyridine] | 21.6% | > 10 µM | 0% | > 10 µM | > 10 µM | 15.2%
10 | c1csc(-c2ccnc3[nH]c(-c4n[nH]c5cnc(-c6cncc(OC7CCCCC7)c6)cc45)cc23)c1 [Compound 703, 5-(5-(Cyclohexyloxy)pyridin-3-yl)-3-(4-(thiophen-2-yl)-1H-pyrrolo[2,3-b]pyridin-2-yl)-1H-pyrazolo[3,4-c]pyridine] | 13.6% | > 10 µM | 2.7% | > 10 µM | > 10 µM | 43.3%
